Reference: patent US10919927B2, “Immune stimulating macrolide” (ISR IMMUNE SYSTEM REGULATION HOLDING AB (PUBL), priority 2017, dated 2021)
Entries after “also recorded” stand apart in the source; their conditions may differ. Values belong to the compound of their own block, whether it stands above or below them.

Tests used:
[1] = test system: E. coli, S. salivarius, L. casei, B. longum or M. luteus; assay: Direct antibacterial activity, all bacterial strains tested (summary); assay type: cell-based
Experimental: The bioactivity of macrolide compounds against 4 strains of common gut bacteria (Escherichia coli, Streptococcus salivarius subsp. salivarius, Lactobacillus casei and Bifidobacterium longum subsp. infantis) and common mammalian skin isolate Micrococcus luteus, was assessed using the Minimum Inhibitory Concentration (MIC) assay. Bacterial strains were purchased from DSMZ (Brunswick, Germany) except M. luteus which was obtained from NCIMB, and stored in 20% glycerol at −80° C. Stock solutions (100% DMSO) of positive controls (azithromycin and erythromycin), and of test compounds 1 and 2 were diluted in broth to working stock concentrations of 256 μg/ml (final assay testing concentration range 128 μg/ml to 0.00391 μg/ml). Stock solutions of all other compounds were diluted in broth to working stock concentrations of 128 μg/ml (final assay testing concentration range 64 μg/ml to 0.00195 μg/ml). Bacterial strains were cultivated in appropriate broth in an anaerobic chamber at 37° C., except for M. luteus which was incubated aerobically at 37° C. 18 h cultures were diluted in broth to an OD595 of 0.1 and then further diluted 1:10. In 96-well plates, in duplicate, 200 μl working stock of test compound was transferred to well 1 and serially diluted (1:2) in broth. 100 μl bacterial suspension was aliquoted into each well and mixed thoroughly. Appropriate sterility controls were included and plates were incubated in an anaerobic chamber, or aerobically (M. luteus) at 37° C. for 18 h. The MIC was determined to be the concentration of test compound in the first well with no visible growth.

[2] = Caco-2 bidirectional permeability assay; assay type: in vitro ADME; details: human, Caco-2, 10 μM, 90 minutes
Experimental: (§1) 10 μM Test article was added to the apical (A) surface of Caco-2 cell monolayers (in HBSS buffer with 0.3% DMSO and 5 μM LY at 37 degrees C.) and compound permeation into the basolateral (B) compartment measured following 90 minutes incubation. This was also performed in the reverse direction (basolateral to apical) to investigate active transport. LC-MS/MS is used to quantify levels of both the test and standard control compounds. Efflux ratio was calculated by dividing the B to A permeability by the […]. Drug permeability: Papp=(VA/(Area×time))×([drug]accepter/(([drug]initial,donor)×Dilution Factor). Assessment of Metabolic Stability (Microsome Stability Assay)
(§2) Compounds were tested using a standard caco-2 bidirectional permeability assay (see general methods).

human TLR2 = biological target: T1, human TLR2 (Homo sapiens, UniProt O60603); assay: TLR2 reporter assay (HEK-293-TLR cells, SEAP); assay type: cell-based; details: concentrations 5 uM up to 20 uM
T1 construct: host or cells: recombinant HEK-293-TLR cell lines
T1 sequence (O60603 21-784): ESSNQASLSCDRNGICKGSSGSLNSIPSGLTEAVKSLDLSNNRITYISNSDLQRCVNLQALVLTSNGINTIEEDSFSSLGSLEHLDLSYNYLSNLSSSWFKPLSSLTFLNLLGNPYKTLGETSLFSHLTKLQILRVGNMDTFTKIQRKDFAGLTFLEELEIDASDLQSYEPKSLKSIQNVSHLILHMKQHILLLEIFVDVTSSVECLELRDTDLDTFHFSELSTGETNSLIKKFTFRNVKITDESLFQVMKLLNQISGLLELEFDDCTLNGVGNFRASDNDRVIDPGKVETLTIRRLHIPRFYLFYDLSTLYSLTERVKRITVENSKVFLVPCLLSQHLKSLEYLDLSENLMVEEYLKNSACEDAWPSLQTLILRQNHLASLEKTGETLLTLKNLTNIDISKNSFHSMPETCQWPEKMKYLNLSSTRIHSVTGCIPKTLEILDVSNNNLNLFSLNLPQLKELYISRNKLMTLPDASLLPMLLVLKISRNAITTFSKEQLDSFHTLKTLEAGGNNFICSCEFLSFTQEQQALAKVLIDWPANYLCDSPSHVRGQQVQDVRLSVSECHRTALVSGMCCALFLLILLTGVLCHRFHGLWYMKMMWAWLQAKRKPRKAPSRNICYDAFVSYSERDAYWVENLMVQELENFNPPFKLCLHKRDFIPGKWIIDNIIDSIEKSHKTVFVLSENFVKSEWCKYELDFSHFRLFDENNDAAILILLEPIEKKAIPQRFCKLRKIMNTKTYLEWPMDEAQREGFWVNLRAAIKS
Experimental: These cell lines functionally over-express human TLR2 protein as well as a reporter gene which is a secreted alkaline phosphatase (SEAP). The production of this reporter gene is driven by an NFkB inducible promoter. The TLR reporter cell lines activation results are given as optical density values (OD).
20 μl of each test article were used to stimulate the hTLR2 reporter cell lines in a 200 μl of final reaction volume. Samples were tested in duplicate, with at least two concentrations tested—20 uM and 10 uM.
Compounds were tested using a TLR2 reporter assay (see general methods) that measured for stimulation of the TLR2 receptor. Stimulatory effect was measured as an increase in optical density, as compared to the negative control (OD) due to release of secreted alkaline phosphatase (SEAP) and is shown in table 2.

[3] = test system: PBMCs from cytomegalovirus (CMV) infected donors; assay: Cytomegalovirus (CMV) antigen cultures; assay type: cell-based, Human
Experimental: Human peripheral blood mononuclear cells (PBMCs) were purified from healthy CMV positive donors with Ficoll-Paque density centrifugation. The PBMC were labeled with 5 μM celltrace violet (Invitrogen) in PBS for 15 minutes and then washed with complete cell culture medium. The labeled PBMC was cultured in the presence of a peptide library spanning the CMV pp65 protein (1 μg peptide/ml, JPT) in AIM-V media (Invitrogen) supplemented with L-glutamine, Sodium pyruvate (Sigma), 10% fetal bovine serum, 100 μg/mL penicillin and 100 μg/mL streptomycin (Hyclone) for 6-8 days in 37° C., 5% CO2. Cell proliferation was assessed with flow cytomtery using a BD FACS Canto II flow cytometer.
Study 7: Virus specific T cell proliferation was also affected by compound 1. […] CD127 is crucial for T cell homeostasis, differentiation and function, and reduced expression correlates with disease severity in HIV and other chronic viral diseases (Crawley et al Sem Imm 2012).
Study 8: PBMCs from CMV infected donors cultured in the presence of CMV antigen where either untreated or exposed to compound 1 or compound 2 for 3 days.

[4] = test system: Macrophages from healthy donors; assay: Cytokine secretion from macrophages, cytometric bead assay; assay type: cell-based, Human
Experimental: Study 9: Macrophages from healthy donors where exposed to compounds 1 or 2 for 48 hours. […] Compound 1 is therefore able to induce IFN-gamma secretion in macrophages from healthy donors.
(§3) Study 10: PBMCs and macrophages where exposed to compounds 1 or 2 for 2 days (FIG. 11).
(§4) Study 11: PBMCs and macrophages where exposed to compounds 1 and 2 for 2 days.
(§5) Study 12: PBMCs, macrophages and CD4+ T cells where exposed to compounds 1 and 2 for 2 days.

PBMCs = assay: Cytokine secretion from PBMC, cytometric bead assay; assay type: cell-based, Human; details: 2 days
Source text: as §3, §4, §5

Caco-2 cell monolayers = assay: Caco-2 bidirectional permeability assay; assay type: in vitro ADME
Experimental: as §1, §2

CD4+ T cells = assay: IL-1beta secretion from CD4+ T cells, cytometric bead assay; assay type: cell-based, Human; details: 2 days
Source text: as §5

C57bl/6 mice [5] = assay: MHC class I expression on CD11b+ splenocytes of mice after i.v. injection; assay type: in vivo; details: spleen 24 h later
Experimental: FIG. 15: % MHC class I high CD11 b+ cells in spleen of 3 individual C57bl/6 mice injected 24 h previously with indicated compound. MHC class I and CD11 b expression was measured by flow cytometry.
Study 14: Compound 1 or 2 was administered i.v. to C57bl/6 mice.

C57bl/6 mice [6] = assay: CD25 high cells in blood of mice after i.v. injection; assay type: in vivo; details: highest dose of 5 mg/kg, 24 h
Experimental: FIG. 14: % CD25 high cells in blood of C57bl/6 mice injected 24 h previously with indicated dose of compound 1. CD25 expression was measured by flow cytometry.
Study 13: Compound 1 was administered i.v. to C57bl/6 mice at 0.165 mg/kg to 5 mg/kg. CD25+ cell abundance was increased in animals receiving the highest dose of 5 mg/kg (FIG. 14), as was body weight in the same group (not shown).

efflux ratio at 90 min, 10 μM [2]: > 77.6 | Papp A→B at 90 min, 10 μM ([2]; apical to basolateral): < 0.14 ×10⁻⁶ cm/s | TLR2 stimulation (in words) (human TLR2): little or no stimulation
SMILES: CC[C@H]1OC(=O)[C@H](C)[C@@H](O[C@H]2C[C@@](C)(OC)[C@@H](O)[C@H](C)O2)[C@H](C)[C@@H](O[C@@H]2O[C@H](C)C[C@H](N(C)C)[C@H]2O)[C@](C)(O)C[C@@H](C)CN(C)[C@H](C)[C@@H](O)[C@]1(C)O [Azithromycin, reference compound]
antibacterial activity (in words) [1]: potent activity

SMILES: CC[C@H]1OC(=O)[C@H](C)[C@@H](O[C@H]2C[C@@H](N(C)C)[C@H](O)[C@@H](C)O2)[C@H](C)[C@@H](O)[C@](C)(O)C[C@@H](C)CN(C)[C@H](C)[C@@H](O)[C@]1(C)O [Compound 1]
antibacterial activity (in words) [1]: no antibacterial activity; also recorded: no or minimal antibacterial effect | IFN-gamma secretion ([3]; 3 days): induced secretion of high levels | IL-7 receptor α (CD127) on activated CMV specific CD8+ T cells ([3]; 6 days): increased expression | IL-1beta secretion in macrophages ([4]; 2 days): increased | IL-12p70 secretion from macrophages ([4]; 2 days): secreted IL-12p70 | expression of RANTES in macrophages ([4]; 2 days): high expression | IFN-gamma secretion from macrophages ([4]; 48 hours): secreted IFN-gamma | IL-1beta secretion in PBMCs (PBMCs): slightly | IL-12p70 secretion from PBMCs (PBMCs): secreted IL-12p70 | expression of RANTES in PBMCs (PBMCs): twofold upregulation | efflux ratio at 90 min, 10 μM [2]: 63.4 | cell permeability compared with Azithromycin and EM703 (in words) (Caco-2 cell monolayers): more cell permeable | efflux ratio compared with Azithromycin and EM703 (in words) (Caco-2 cell monolayers): lower efflux ratio | IL-1beta secretion in CD4+ T cells (CD4+ T cells): no IL-1beta was induced | splenocyte cells (CD11b+) with high MHC I expression (C57bl/6 mice [5]): increase | TLR2 stimulation (in words) (human TLR2): stimulated TLR2 at concentrations down to 5 uM | CD25+ cell abundance in blood (C57bl/6 mice [6]): increased

TLR2 stimulation (in words) (human TLR2): little or no stimulation
SMILES: CC[C@H]1OC(=O)[C@H](C)[C@@H](O[C@H]2C[C@@](C)(OC)[C@@H](O)[C@H](C)O2)[C@H](C)[C@@H](O[C@@H]2O[C@H](C)C[C@H](N(C)C)[C@H]2O)[C@](C)(O)C[C@@H](C)C(=O)[C@H](C)[C@@H](O)[C@]1(C)O [Erythromycin, Erythromycin A, reference compound]
antibacterial activity (in words) [1]: potent activity
